Columns and labels:
human PRMT1 = target: T1, human PRMT1 (Homo sapiens, UniProt Q99873); assay: PRMT1 Biochemical Assay (3H-SAM Flashplate, peptide substrate); settings: single experiment or average of multiple experiments
T1 construct: GST-tagged PRMT1; made in house; host or cells: High Five insect cells (baculovirus)
Method in brief: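 GST-tagged PRMT1 from baculovirus-infected cells, preincubated with compounds 30 min at room temperature in 20 mM Bicine pH 7.6, 1 mM TCEP, 0.005% BSG, 0.002% Tween 20. Reaction started with ³H-SAM plus biotinylated peptide, stopped with 300 µM cold SAM.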

human PRMT8 = human PRMT8 (Homo sapiens, UniProt Q9NR22); assay: PRMT8 Biochemical Assay (3H-SAM Flashplate, peptide substrate); settings: single experiment or average of multiple experiments
Sequence of human PRMT8 (Q9NR22 whole entry): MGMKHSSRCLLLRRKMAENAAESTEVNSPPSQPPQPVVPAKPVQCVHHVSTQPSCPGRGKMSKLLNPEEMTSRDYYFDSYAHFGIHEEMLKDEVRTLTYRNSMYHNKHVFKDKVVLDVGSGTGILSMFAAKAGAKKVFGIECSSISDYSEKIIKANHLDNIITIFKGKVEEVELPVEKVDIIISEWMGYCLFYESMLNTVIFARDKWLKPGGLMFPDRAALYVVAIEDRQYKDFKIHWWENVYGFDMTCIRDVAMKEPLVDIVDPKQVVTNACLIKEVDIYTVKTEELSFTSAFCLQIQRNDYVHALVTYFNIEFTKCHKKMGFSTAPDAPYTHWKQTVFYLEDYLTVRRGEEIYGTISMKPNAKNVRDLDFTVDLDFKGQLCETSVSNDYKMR
Method in brief: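 E. coli-expressed human PRMT8 (GST removed) was preincubated with compound for 30 min at room temperature in 20 mM Bicine pH 7.6 with TCEP, BSG and Tween 20. 3H-SAM and a biotinylated H4 31-45 peptide were then added, and the reaction was stopped with cold SAM. Labelled peptide was captured on streptavidin Flashplates; % inhibition was calculated against DMSO and SAH controls and fitted to a 3- or 4-parameter curve.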

T1 sequence (Q99873 with tags, fused parts or gaps): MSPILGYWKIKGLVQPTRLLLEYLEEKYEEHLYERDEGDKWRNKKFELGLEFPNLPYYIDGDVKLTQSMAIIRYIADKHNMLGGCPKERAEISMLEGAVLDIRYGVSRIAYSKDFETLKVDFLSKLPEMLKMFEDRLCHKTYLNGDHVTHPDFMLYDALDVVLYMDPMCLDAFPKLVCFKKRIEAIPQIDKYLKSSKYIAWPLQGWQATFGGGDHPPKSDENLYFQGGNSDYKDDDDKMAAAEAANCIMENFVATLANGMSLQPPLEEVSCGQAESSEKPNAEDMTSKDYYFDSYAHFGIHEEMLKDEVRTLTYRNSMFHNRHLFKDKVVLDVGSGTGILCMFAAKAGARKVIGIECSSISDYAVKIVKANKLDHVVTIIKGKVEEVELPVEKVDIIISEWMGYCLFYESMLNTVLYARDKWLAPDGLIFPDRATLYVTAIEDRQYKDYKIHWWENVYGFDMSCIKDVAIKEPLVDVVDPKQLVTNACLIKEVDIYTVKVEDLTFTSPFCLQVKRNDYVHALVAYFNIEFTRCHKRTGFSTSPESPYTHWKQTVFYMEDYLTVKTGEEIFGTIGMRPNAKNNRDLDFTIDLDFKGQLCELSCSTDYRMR

Structure (SMILES) | IC50 (human PRMT1) | IC50 (human PRMT8)
CN(CCN)Cc1cn(C)nc1-c1ccc(F)cc1 [Compound 3] | 0.0581 µM | 0.96 µM
CN(CCN)Cc1cnn(C)c1-c1ccc(F)cc1 [Compound 4] | 0.152 µM | 2.43 µM
COCCn1cc(CN(C)CCN)c(-c2ccc(F)cc2)n1 [Compound 5] | 1.19 µM | 4.2 µM
CCN(CCNC)Cc1c[nH]nc1-c1ccc(F)cc1 [Compound 9] | – | 0.396 µM
CNCCN(C)Cc1cnn(C)c1-c1ccc(F)cc1 [Compound 10] | – | 0.693 µM
CNCCN(C)Cc1c[nH]nc1-c1cccc(N)c1 [Compound 32] | – | 1.53 µM
CNCCN(C)Cc1c[nH]nc1-c1ccc(CC#N)cc1 [Compound 34] | – | 0.773 µM
CNCCN(C)Cc1c[nH]nc1-c1ccccc1O [Compound 35] | – | 24.8 µM
CNCCN(C)Cc1c[nH]nc1-c1cccc(OC(F)(F)F)c1 [Compound 39] | – | 0.596 µM
CNCCN(C)Cc1c[nH]nc1-c1ccccc1NS(C)(=O)=O [Compound 41] | – | 40 µM
CNCCN(C)Cc1c[nH]nc1-c1cccc(NC(C)=O)c1 [Compound 42] | – | 1.54 µM
CNCCN(C)Cc1c[nH]nc1-c1cccc(C(C)=O)c1 [Compound 44] | – | 0.522 µM
CNCCN(C)Cc1c[nH]nc1-c1ccc(-c2ccccc2)cc1 [Compound 47] | – | 0.0908 µM
CNCCN(C)Cc1c[nH]nc1-c1ccccc1F [Compound 48] | – | 2.17 µM
CN(CCN)Cc1n[nH]cc1-c1ccc(F)cc1 [Compound 69] | 0.0511 µM | 2.04 µM
CN(CCN)Cc1c[nH]nc1-c1cccc(C#N)c1 [Compound 70] | 0.2 µM | 2.49 µM
CN(CCN)Cc1c[nH]nc1-c1cccc(F)c1 [Compound 71] | 0.0188 µM | 0.347 µM
CN(CCN)Cc1c[nH]nc1-c1ccccc1F [Compound 72] | 0.278 µM | 3.73 µM
CN(CCN)Cc1c[nH]nc1-c1ccccc1 [Compound 73] | 0.126 µM | 0.959 µM

Structure (SMILES) | IC50 (human PRMT1) | IC50 (human PRMT8)
CN(CCN)Cc1c[nH]nc1-c1ccc(C(C)(C)C)cc1 [Compound 74] | 0.0149 µM | 0.185 µM
CC(C)N(CCN)Cc1c[nH]nc1-c1ccc(F)cc1 [Compound 75] | 0.616 µM | 2.51 µM
CN(CCN)Cc1cn(C2COC2)nc1-c1ccc(F)cc1 [Compound 77] | 0.215 µM | 1.66 µM
NCCN(Cc1c[nH]nc1-c1ccc(F)cc1)C1CC1 [Compound 78] | 0.328 µM | 1.49 µM
CN(CCN)Cc1cnn(C2COC2)c1-c1ccc(F)cc1 [Compound 81] | 0.435 µM | 3.45 µM
CN(CCN)Cc1c[nH]nc1-c1ccc(N2CCNCC2)cc1 [Compound 82] | 0.0961 µM | 2.47 µM
CN(CCN)Cc1nn(C)cc1-c1ccc(C#N)cc1 [Compound 83] | 0.0303 µM | 0.71 µM
CN(CCN)Cc1c[nH]nc1-c1ccc(C(F)(F)F)cc1C(F)(F)F [Compound 85] | 0.234 µM | 4.26 µM
CN(CCN)Cc1c[nH]nc1-c1ccc(Cl)cc1Cl [Compound 86] | 0.024 µM | 0.74 µM
COc1ccc(-c2n[nH]cc2CN(C)CCN)c(OC)c1 [Compound 87] | 0.172 µM | 3.11 µM
Cc1ccc(-c2n[nH]cc2CN(C)CCN)c(C)c1 [Compound 88] | 0.128 µM | 1.89 µM
CN(CCN)Cc1c[nH]nc1-c1ccc(F)cc1Cl [Compound 89] | 0.0674 µM | 1.73 µM
Cc1ccc(-c2n[nH]cc2CN(C)CCN)c(Cl)c1 [Compound 90] | 0.0413 µM | 1.38 µM
Cc1ccc(Cl)c(-c2n[nH]cc2CN(C)CCN)c1 [Compound 91] | 0.272 µM | 6.9 µM
CN(CCN)Cc1c[nH]nc1-c1ccc(C(F)(F)F)cc1 [Compound 92] | 0.00569 µM | 0.152 µM
CN(CCN)Cc1c[nH]nc1-c1ccc(OC(F)(F)F)cc1 [Compound 93] | 0.00464 µM | 0.0761 µM
CN(CCN)Cc1c[nH]nc1-c1ccc(OC(F)F)cc1 [Compound 94] | 0.00797 µM | 0.198 µM
CN(CCN)Cc1c[nH]nc1-c1ccc(Cl)cc1 [Compound 95] | 0.00784 µM | 0.207 µM

— patent US9776972B2, “Pyrazole derivatives as arginine methyltransferase inhibitors and uses thereof” (priority 2013, dated 2017)
